Article PMC2626591, “Phage display-derived inhibitor of the essential cell wall biosynthesis enzyme MurF” (BMC Biochemistry, 2008)
Ends that are not written are not given here.

Columns and labels:
P. aeruginosa MurF [1] = target: T1, P. aeruginosa MurF (Pseudomonas aeruginosa, UniProt Q9EY48); test: MurF inhibition by MurFp1, spectrophotometric (Lanzetta reagent) ATPase assay; assay type: biochemical
T1 construct: made in house
Method: (§1) The ATPase activity of P. aeruginosa MurF was quantified by a colorimetric assay that measures the release of nanomoles of inorganic phosphate using the Lanzetta reagent. The reaction mixture (100 μl), held at room temperature, contained 40 nM of purified MurF from a fresh aliquot, 1 mM ATP, 100 μM UDP-MurNAc-Ala-Glu-meso-A2pm and 5 mM D-Ala-D-Ala in buffer C (100 mM Tris-HCl pH 8.6, 40 mM KCl, 500 mM NaCl, 1 mg/ml bovine serum albumin and 10 mM MgCl2). Reaction time was 15 min before adding 800 μl of the Lanzetta reagent. After an additional 5 min for colour development, 100 μl of 34% (w/v) sodium citrate was added to stop the reaction. The optical density at 660 nm was immediately measured with a Cary spectrophotometer (Varian, Mississauga, Ontario, Canada). The amount of inorganic phosphate released by MurF was determined by comparison to the linear portion of a phosphate standard curve with a minimum R^2 value of 0.99. The phosphate content of each component in the reaction was subtracted from the total phosphate measured, negative controls were done without enzyme or substrate, and assays were done in triplicate. Different concentrations of each substrate and NaCl were tested to determine optimal conditions for the study of the activity of MurFp1.
MurFp1 was synthesized and purified as previously described. Peptide purity (> 95%) was analyzed by HPLC and molecular mass (1424.68 daltons) was confirmed by MALDI-TOF mass spectroscopy. […]
Inhibition of MurF enzymatic activity by MurFp1 was measured by the spectrophotometric assay described above. […] The effect of non-specific peptides was analysed on MurF enzymatic activity, with and without UDP-MurNAc-Ala-Glu-A2pm in the pre-incubation step. […]
Kinetic data were fitted to the appropriate model equations using the Sigmaplot Enzyme Kinetics Module. Steady-state inhibition kinetic parameters were determined by nonlinear regression analysis using the least squares method as a reference to ensure accurate dataset fitting and to generate error estimates for each individual observation. […]

P. aeruginosa MurF [2] = target: T1, P. aeruginosa MurF; test: MurF kinetics with respect to D-Ala-D-Ala, spectrophotometric (Lanzetta reagent) ATPase assay; assay type: biochemical
Method: as §1
The maximal specific activity, the catalytic constant (kcat), the Michaelis-Menten constant (Km) and the enzyme efficiency (kcat/Km) were determined for MurF with respect to D-Ala-D-Ala. Kinetic parameters were determined by nonlinear regression analysis with a square matrix of enzyme velocities following the Michaelis-Menten equations using the Enzyme Kinetics Module version 1 of SigmaPlot version 8.

MurF = conditions: 12-mer phage library, elution with glycine-HCl, 1 mM ATP or 1 mM D-Ala-D-Ala; ten phages sequenced per elution condition; in words
Method: Phage display screening was performed with the PH.D.-12 phage library (New England Biolabs, Mississauga, Ontario, Canada). […] Phages encoding selected peptides were eluted at the end of the third round using 100 μl of 0.2 M glycine-HCl (pH 2.2) [17], and 100 μl of 1 mM ATP or 1 mM D-Ala-D-Ala for 30 min. The DNA of ten phages was prepared and sequenced with a -96 gIII primer (New England Biolabs) for each elution condition [23].

T1 sequence (Q9EY48 entry or part of it): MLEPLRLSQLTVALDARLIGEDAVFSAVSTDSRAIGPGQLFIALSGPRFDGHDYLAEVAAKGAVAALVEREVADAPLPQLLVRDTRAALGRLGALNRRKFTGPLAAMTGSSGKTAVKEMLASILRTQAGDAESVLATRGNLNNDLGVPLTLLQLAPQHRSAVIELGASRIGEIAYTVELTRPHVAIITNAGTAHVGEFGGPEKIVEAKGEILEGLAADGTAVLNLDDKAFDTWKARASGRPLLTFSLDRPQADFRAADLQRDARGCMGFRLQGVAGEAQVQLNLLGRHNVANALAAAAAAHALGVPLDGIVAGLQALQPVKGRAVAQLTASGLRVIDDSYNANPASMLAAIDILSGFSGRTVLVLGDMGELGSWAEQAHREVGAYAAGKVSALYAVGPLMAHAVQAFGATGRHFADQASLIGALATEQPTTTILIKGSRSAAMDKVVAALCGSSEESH

Substance: TMGFTAPRFPHY [MurFp1]
- inhibition at 2000 µM (P. aeruginosa MurF [1]; 2 mM MurFp1, 30-minute pre-incubation of MurF with MurFp1, no substrate in pre-incubation): 50%
- IC50 (P. aeruginosa MurF [1]; 30 min pre-incubation with MurF, MurFp1 and UDP-MurNAc-Ala-Glu-meso-A2pm, 40 nM MurF, pH 8.6, room temperature, 15 min reaction, OD 660 nm, assays in triplicate): 250 ± 10 µM
- effect on Km for D-Ala-D-Ala (P. aeruginosa MurF [1]; each MurFp1 concentration used, 30 min pre-incubation with UDP-MurNAc-Ala-Glu-A2pm, in words): remained almost the same

Substance: D-Alanyl-D-Alanine [D-Ala-D-Ala]
- Km (P. aeruginosa MurF [2]; MurF, with respect to D-Ala-D-Ala, pH 8.6, room temperature): 115 ± 10 µM
- ligations of D-Ala-D-Ala per MurF active site (kcat) (P. aeruginosa MurF [2]; ligation to UDP-MurNAc-Ala-Glu-meso-A2pm, from kcat): about 100 per min
- kcat/Km (P. aeruginosa MurF [2]; with respect to D-Ala-D-Ala, pH 8.6, room temperature): 14200 ± 2500 M⁻¹ s⁻¹

Substance: VSANRHLGGNLP
- recovery in third round of bio-panning (MurF): recovered once by both the ATP and D-Ala-D-Ala elutions
